Experimental data taken from patent US20200023018A1, “MODULATION OF GUT MICROBIOTA IN HUNTINGTON'S DISEASE AND RETT SYNDROME” (priority 2017, published 2020).
Entries after “also recorded” stand apart in the source; their conditions may differ.

How the values were obtained:
human microbiota = details: cited from earlier work
Rett mice [1] = assay: Behaviors of Rett mice (nest building, climbing, wire-mesh hanging, clasping); type: in vivo
Experimental: FIG. 58 is a graph depicting that rifaximin-treated mice make more attempts at climbing a wired-mesh cylinder within a 2 min time allowed. FIG. 5C is a graph depicting that testing muscle strength by wired mesh hanging assay. […] N=6. Scoring and procedures were as described in Southwell et al., 2009.
N=6. Scoring and procedures were as described in Southwell et al., 2009.
Nest building is indicative of rodents' well-being, daily activity, positive motivational state, and healthy brain functions (Jirkof, 2014).
Nest building is indicative of rodents' wellbeing, daily activity, positive motivational state, and healthy brain functions (Jirkof, 2014). […] This is consistent with the improved mobility in Rett mice observed herein. The data herein can be confirmed with additional behavioral tests, including rotarod, beam crossing, and open field. These studies can confirm benefits of rifaximin therapy on the CNS pathology and/or aberrant behaviors in Rett syndrome.
This is based on observations that male mice start displaying symptoms when they are ˜10 weeks old.
Hind limb clasping is a marker of disease progression in Rett syndrome and other diseases with motor defects. In this assay animals were suspended by the tail ˜30 cm above the tabletop for 1 min and recorded with a video camera. No clasping is scored as 0, periodic clasping and extension is scored as 1, and full hind limb clasping was scored with occasional extension is scored as 2. Severe clasping is scored as 3.

Rett mice [2] = assay: Staining of brain sections of Rett mice for astrocyte and microglial markers; type: in vivo
From the text: FIG. 15A depicts staining with markers of activated astrocyte GFAP (center column) and GS (right column); Overlay of GFAP and GS is shown in left column. […] The Iba-1 and CD11 generally colocalized throughout the hippocampal region, but Iba-1 was expressed at higher levels in the vehicle-treated group (see, e.g, arrow), and lower levels in the rifaximin-treated group.
The finding can be re-confirmed and quantified for statistical analysis. Elevation of GFAP and GS is linked to astrocytes activation and inflammation. Astrocytes are recognized as therapeutic targets for neuroinflammation, neurodegeneration, and neuropsychiatric disorders. Subsets of gut microbes produce molecules, which reach the CNS, lower astrocytes activation, and subsequently reduce the production of inflammatory cytokines (Rothhamrner et al., 2016). Gut bacteria also greatly influence the development of microglia, which are the CNS immune cells (Erny et al., 2015).
For example, animals can be gavaged with known amounts of rifaximin to ensure equal delivery.

[3] = tested on: Parkinson's disease patients; details: pilot study; cited from earlier work
Rett mice [4] = assay: Whole body plethysmography in Rett mice; type: in vivo; details: predicted
From the text: Whole body plethysmography are used to measure breathing irregularities in Rett mice. This phenotype is common in Rett patients (Lombardi et al., 2015). An accumulating body of literature supports the potential importance of vagus nerve in the regulation of breathing. We predict that intestinal dysbiosis in Rett impairs the vagus nerve activity and exacerbate the breathing abnormalities. […] The Buxco Fine Pointe Unrestrained Whole Body Plethysmograph system from Data Sciences International (DSI; St. Paul, Minn.) are used for these measurements.

Rett mice [5] = assay: GI pathology and metabolic changes in Rett mice; type: in vivo
From the text: In FIG. 14A, each point represents a mouse. N=6 each in FIG. 14C. […] N=6 for FIGS. 14E and 14F.
It was examined whether eliminating the intestinal microbiota of Rett mice alters GI pathology.

Rett mice [6] = assay: Neurogenesis in Rett mice (doublecortin and ki67 staining); type: in vivo
From the text: FIGS. 18A-C are a series of graphs and images depicting effects of microbiota on neurogenesis in Rett mice in accordance with some embodiments herein. FIG. 18A is a series of images depicting doublecortin staining of bilateral hippocampus in vehicle-treated (top panels) and rifaximin-treated Rett mice (bottm panels). FIG. 18B is a graph showing quantification of doublecortin positive cells in the dentate gyrus of bilateral hippocampi (2 layers) from 4 vehicle-treated and 6 rifaximin-treated animals, FIG. 18C is a series of images showing ki67 positive cells (arrows) in the SVZ (subventricular zone) of vehicle (top) and rifaximin-treated Rett mice. Boxed areas highlight regions with dramatic changes (considerably more ki67-positive cells are observed in the rifaximin-treated mose). NeuN staining for neurons (NeuN) is observed as bright foci throughout.

Rett mice [7] = assay: Learning and memory of Rett mice (novel object recognition, Barnes Maze); type: in vivo; details: rifaximin-treated Rett mice; expected
Experimental: GF WT and Rett mice are also tested for these behaviors the results are compared with the rifaxitnin-treated cohorts.
We previously used this test in an environmental mouse model of autism (Hsiao et al., 2013). Rodents in general spend more time exploring a novel object than a familiar one. The ability to choose the novel object is indicative of learning and recognition memory. The novel object recognition task is conducted in an open field arena with two different kinds of objects. Both objects are generally consistent in height and volume, but are different in shape and appearance. During habituation, the animals are allowed to explore an empty arena. […] The time spent exploring each object and the discrimination index percentage are recorded. This test is used, among other experiments, to assess the cognitive ability of vehicle- and rifaximin-treated Rett mice as well as GF cohorts and quantify and compare the results.
In this test mice learn the position of a hole to escape the brightly lit open surface of the maze. […] Rett mice as well as GF cohorts and quantify and compare the results. For data acquisition the amount of time required for the animal to locate the goal box using visuo-spatial cues surrounding the maze periphery are measured. The number of errors the mice make are recorded to find the escape hole. […]

humans = details: cited from earlier work
[8] = tested on: Hepatic Encephalopathy (HE) patients; details: clinical studies; cited from earlier work
Rett mice [9] = assay: Semi-quantitative PCR of gut bacteria in Rett mice; type: in vivo
From the text: FIG. 7 is an image depicting the results of semi-quantitative PCR of Rett mice of some embodiments. […] Top panels are Eubacteria amplification used as a positive control.
FIG. 19 is an image showing the results of semi-quantitative PCR in WT and Rett mice in accordance with some embodiments herein.
Less is known about the role of Tenericutes in human health. In animals however, the presence of Tenericutes correlates with digestion of crude fiber (Niu et al., 2015).

Drosophila model of HD = assay: Aggregation of mHDx1 in a Drosophila model of HD (immunohistochemistry, Western blot); type: in vivo
From the text: FIG. IB is an image of a Western blot (WB) of different batch pooled larvae examined for MHDx1 aggregation. FIG. 1C is a series of images depicting immunohistochemistry similar to FIG. 1A except that adult flies were used in FIG. 1C. FIG. 1D depicts a WB similar to FIG. 1B, except that adult flies were used in FIG. 1D. The Gal4 induction system with mHDx1 (120Q) downstream of UAS (upstream activation sequence) and the gal4 transactivator downstream of Drosophila neuronal-specific promoter Elav was used to induce the expression of mHDx1 in the nervous system of offspring. In FIG. 1C, the central brain region is shown.
Without being limited by theory, it is contemplated that intestinal microbiota contributes to the aggregation of mutant HTT in the enteric nervous stem (ENS). In a Drosophila model of HD (Barbaro et al., 2015), inducing the expression of a mutant HTT exon-1 fragment (mHDx1) in the nervous system promoted aggregation in the ENS of larvae in the vicinity of the gut (FIGS. 1A and 1B). The initial appearance of aggregates in the larval ENS is thus observed.
Accordingly, it is observed herein that treatment with an antibiotic in accordance with some embodiments herein decreases aggregates of mutant Huntingtin protein.

[10] = brain sections from the cortical regions, some of the treated Rett mice, compared to vehicle
[11] = Rett mice treated after weaning for 6 weeks

For `CO[C@H]1/C=C/O[C@@]2(C)Oc3c(C)c(O)c4c(O)c(c5c(nc6cc(C)ccn65)c4c3C2=O)NC(=O)/C(C)=C\C=C\[C@H](C)[C@H](O)[C@@H](C)[C@@H](O)[C@@H](C)[C@H](OC(C)=O)[C@@H]1C` [rifaximin], the “proliferation of probiotic species including Bifidobacteria” value (human microbiota) is given as “promotes the proliferation”, the “activity in the cage environment” value (Rett mice [1]) is given as “more active” and the “hind limb clasping phenotype” value (Rett mice [1]) is given as “significantly reduced clasping phenotype”. For the same compound, the nest building (Rett mice [1]) was “build better nests”, the “wire-mesh hanging assay (muscle strength)” value (Rett mice [1]) was “perform better; also recorded: enhanced muscle strength” and the “climbing a wire-meshed cylinder” value (Rett mice [1]; 2 min time allowed) was “perform better; also recorded: make more attempts to climb”. For the same compound, the “staining for glial fibrillary acidic protein (GFAP)” value (Rett mice [2]; [10]) was “reduced staining”, the “staining for glutamine synthetase (GS)” value (Rett mice [2]; [10]) was “reduced staining” and the “numbers of microglia (microglial biomarkers)” value (Rett mice [2]; brain sections of Rett mice, some of the treated animals) was “numbers were reduced”. For the same compound, the Iba-1 expression (Rett mice [2]; hippocampal region of Rett mice, versus vehicle-treated group) was “lower levels”, the motor functions [3] was “improved motor functions” and the breathing defects (Rett mice [4]) was “ameliorate some of the breathing defects”. The “GI and metabolic symptoms of Rett mice” value (Rett mice [5]; Rett mice) was “eliminated the GI and metabolic symptoms”, the “inflammatory appearance of the GI tract” value (Rett mice [5]; Rett mice) was “reduces the inflammatory appearance of the GI tract” and the colon length (Rett mice [5]; [11]) was “selectively elongates the colon”. The intestinal obesity (Rett mice [5]; [11]) was “prevents intestinal obesity”, the “accumulation of abdominal fat” value (Rett mice [5]; female Rett mice) was “prevented” and the weight gain (Rett mice [5]; female Rett mice) was “prevented”. For the same compound, the hippocampal neurogenesis (Rett mice [6]; compared to vehicle, doublecortin staining) was “enhanced”, the dendritic arborization (Rett mice [6]; compared to vehicle, hippocampus) was “enhanced” and the “proliferation of cells in the subventricular zone (SVZ)” value (Rett mice [6]; ki67) was “Enhanced proliferation”. For the same compound, the learning and memory (Rett mice [7]) was “learning and memory are improved”, the safety and tolerability (humans) was “safe and well tolerated” and the bacterial load [8] was “decreases bacterial load”. The leaky gut [8] was “corrects leaky gut”, the “severity of aberrant behaviors (anxiety, irritability, depression, motor symptoms, cognitive impairment)” value [8] was “reduces the severity of several aberrant behaviors” and the “abundance of Bifidobacteria in the GI tract” value (Rett mice [9]) was “did not increase”. The “abundance of the phylum Tenericutes” value (Rett mice [9]) was “increased abundance”, the “aggregation of mHDx1 in larvae” value (Drosophila model of HD; Drosophila HD larvae generated in the presence of rifaximin) was “lowers the aggregation of mHDx1” and the “aggregation of mHDx1 in the CNS of adult flies” value (Drosophila model of HD; adult HD flies) was “reduces the aggregation of mHDx1”.
